Test results: ChEMBL document CHEMBL3120093 (J Med Chem, 2014)

What was measured:
[1] = Oral bioavailability in dog at 3 mg/kg after 24 hrs; assay type: ADME, organism-based, Canis lupus familiaris; settings: plasma
[2] = Clearance in rat at 2 mg/kg, iv after 24 hrs; assay type: ADME, organism-based; set-up: dose 2 mg/kg, route intravenous; settings: in vivo
Liver microsome [3] = assay: Metabolic stability of the compound in rat liver microsomes assessed as […] formation at 10 uM after 30 mins; assay type: ADME; settings: 0.5 h
[4] = AUC in dog at 3 mg/kg, po after 24 hrs; assay type: ADME, organism-based, Canis lupus familiaris; set-up: time < 24 hr, dose 3 mg/kg, route oral; settings: plasma
[5] = Half life in rat at 2 mg/kg, iv after 24 hrs; assay type: ADME, organism-based; set-up: dose 2 mg/kg, route intravenous; settings: in vivo
Liver microsome [6] = assay: Metabolic stability of the compound in human liver microsomes assessed as cyanide adduct formation at 10 uM after 30 mins; assay type: ADME; settings: 0.5 h
[7] = Drug uptake in rat liver at 5 mg/kg, po after 4 hrs; assay type: ADME, organism-based; set-up: dose 5 mg/kg, route oral; settings: read-out: Drug uptake
[8] = Plasma concentration in rat at 5 mg/kg, po after 4 hrs; assay type: ADME, organism-based; set-up: dose 5 mg/kg, route oral
Liver microsome [9] = assay: Metabolic stability of the compound in human liver microsomes assessed as GSH adduct formation at 10 uM after 30 mins; assay type: ADME; settings: 0.5 h
[10] = Volume of distribution in rat at 2 mg/kg, iv after 24 hrs; assay type: ADME, organism-based; set-up: dose 2 mg/kg, route intravenous; settings: in vivo
[11] = Permeability of the compound at PH 7.4 by PAMPA; assay type: ADME; settings: read-out: permeability
[12] = Plasma concentration in dog at 3 mg/kg, po after 24 hrs; assay type: ADME, organism-based, Canis lupus familiaris; set-up: dose 3 mg/kg, route oral
[13] = Half life in dog at 1 mg/kg, iv after 24 hrs; assay type: ADME, organism-based, Canis lupus familiaris; set-up: dose 1 mg/kg, route intravenous; settings: in vivo
[14] = Clearance in rat at 2 mg/kg, iv after 4 hrs; assay type: ADME, organism-based; set-up: dose 2 mg/kg, route intravenous; settings: in vivo
[15] = AUC in rat at 5 mg/kg, po after 4 hrs; assay type: ADME, organism-based; set-up: time < 4 hr, dose 5 mg/kg, route oral; settings: plasma
[16] = Volume of distribution in dog at 1 mg/kg, iv after 24 hrs; assay type: ADME, organism-based, Canis lupus familiaris; set-up: dose 1 mg/kg, route intravenous; settings: in vivo
Liver microsome [17] = assay: Metabolic stability of the compound in human liver microsomes assessed as GSH adduct formation at 10 uM after 30 mins; settings: 0.5 h
[18] = Clearance in dog at 1 mg/kg, iv after 24 hrs; assay type: ADME, organism-based, Canis lupus familiaris; set-up: dose 1 mg/kg, route intravenous; settings: in vivo
[19] = Oral bioavailability in mouse at 20 mg/kg after 24 hrs; assay type: ADME, organism-based; settings: plasma
[20] = Volume of distribution in mouse at 5 mg/kg, iv after 24 hrs; assay type: ADME, organism-based; set-up: dose 5 mg/kg, route intravenous; settings: in vivo
[21] = Permeability from basolateral to apical side of human Caco2 cells; assay type: ADME, cell-based; settings: Caco-2, read-out: permeability
[22] = Drug uptake in rat liver at 5 mg/kg, po after 24 hrs; assay type: ADME, organism-based; set-up: dose 5 mg/kg, route oral; settings: read-out: Drug uptake
[23] = Plasma concentration in mouse at 20 mg/kg, po after 24 hrs; assay type: ADME, organism-based; set-up: dose 20 mg/kg, route oral
[24] = Oral bioavailability in rat at 5 mg/kg after 24 hrs; assay type: ADME, organism-based; settings: in vivo
[25] = AUC in mouse at 20 mg/kg, po after 24 hrs; assay type: ADME, organism-based; set-up: time < 24 hr, dose 20 mg/kg, route oral; settings: plasma
[26] = Clearance in mouse at 5 mg/kg, iv after 24 hrs; assay type: ADME, organism-based; set-up: dose 5 mg/kg, route intravenous; settings: in vivo
[27] = Permeability from apical to basolateral side of human Caco2 cells; assay type: ADME, cell-based; settings: Caco-2, read-out: permeability
[28] = AUC in rat at 5 mg/kg, po after 24 hrs; assay type: ADME, organism-based; set-up: time < 24 hr, dose 5 mg/kg, route oral; settings: plasma
[29] = Ratio of drug level in liver to plasma in rat at 5 mg/kg, po after 24 hrs; assay type: ADME, organism-based; set-up: dose 5 mg/kg, route oral
[30] = Half life in mouse at 5 mg/kg, iv after 24 hrs; assay type: ADME, organism-based; set-up: dose 5 mg/kg, route intravenous; settings: in vivo
[31] = Drug uptake in mouse liver at 20 mg/kg, po after 24 hrs; assay type: ADME, organism-based; set-up: dose 20 mg/kg, route oral; settings: read-out: Drug uptake
[32] = Plasma concentration in rat at 5 mg/kg, po after 24 hrs; assay type: ADME, organism-based; set-up: dose 5 mg/kg, route oral

Compound: O=C([C@@H](c1ccccc1)N1CCCCC1)N1CCC[C@H]1c1ncc(-c2ccc(-c3ccc(-c4cnc([C@@H]5CCCN5C(=O)[C@@H](c5ccccc5)N5CCCCC5)[nH]4)cc3)cc2)[nH]1
- bioavailability [1]: 14%
- clearance [2]: 63 mL/min/kg
- Stability (Liver microsome [3]): Unstable
- AUC at 24 h [4]: 0.272 µM·h
- half-life [5]: 7.7 h
- Stability (Liver microsome [6]): Unstable
- concentration at 4 h [7]: 1200 nM
- concentration at 4 h [8]: 13 nM
- Stability (Liver microsome [9]): Stable
- Vd [10]: 20 L/kg
- Papp [11]: 25.1 ×10⁻⁶ cm/s
- concentration at 24 h [12]: 8.3 nM
- half-life [13]: > 12 h
- clearance [14]: 58 mL/min/kg
- AUC at 4 h [15]: 0.047 µM·h
- Vd [16]: 10 L/kg
- Stability (Liver microsome [17]): Stable
- clearance [18]: 28 mL/min/kg

Compound: COC(=O)N[C@@H](C(=O)N1CCC[C@H]1c1ncc(-c2ccc(-c3ccc(-c4cnc([C@@H]5CCCN5C(=O)[C@H]5CCCO5)[nH]4)cc3)cc2)[nH]1)c1ccccc1
- bioavailability [1]: 45%
- bioavailability [19]: 17%
- clearance [2]: 4.4 mL/min/kg
- AUC at 24 h [4]: 1.52 µM·h
- half-life [5]: 6.9 h
- Vd [20]: 1.9 L/kg
- Papp B→A [21]: 10.5 ×10⁻⁶ cm/s
- concentration at 4 h [7]: 2570 nM
- concentration at 4 h [8]: 234 nM
- Vd [10]: 0.3 L/kg
- Papp [11]: 46.4 ×10⁻⁶ cm/s
- concentration at 24 h [22]: 116 nM
- concentration at 24 h [23]: 59 nM
- bioavailability [24]: 6.8%
- AUC at 24 h [25]: 15.1 µM·h
- clearance [26]: 5.3 mL/min/kg
- concentration at 24 h [12]: 6 nM
- half-life [13]: > 10 h
- AUC at 4 h [15]: 0.809 µM·h
- Papp A→B [27]: < 1.5 ×10⁻⁶ cm/s
- Vd [16]: 7.5 L/kg
- AUC at 24 h [28]: 1.83 µM·h
- Kp at 24 h [29]: 26
- half-life [30]: 2.9 h
- concentration at 24 h [31]: 253 nM
- concentration at 24 h [32]: 4.5 nM
- clearance [18]: 22 mL/min/kg
